Measurements as given in US10485885B2, “Compositions and methods for delivery of agents” (ModernaTX, Inc., priority 2015, dated 2019).

System: circulating B cells and monocytes
Assay: B cell, B1a cell and monocyte frequencies and activation in non-human primate PBMCs
Assay type: in vivo, cynomolgus monkeys
Method: The percentage of monocyte activation was also measured at pre-bleed, day 1, day 22, day 43, and day 44 of the study.
FIGS. 84A and 84B show the EPO expression after the first injection and after the fifth injection. In particular, the concentration of EPO (ng/mL) was measured at 2 hours, 6 hours, 12 hours, 24 hours, and 48 hours following the first injection and the fifth injection. FIGS. 85A-85E show the EPO expression for each of the co-medications on day 1 and day 29 of the study. In particular, the concentration of EPO (ng/mL) was measured on day 1 and day 29 at 2 hours, 6 hours, 12 hours, 24 hours, and 48 hours for each co-medication group. Immune cell populations were also measured. Specifically, the percentage of B cells (FIG. 86A), B1a cells (FIG. 86B), and monocytes (FIG. 86C) in PBMCs was measured for each co-medication group at day-7, 24 hours post first injection, and 24 hours post fifth injection. B cell activation is reflected in FIG. 87. The percentage of activated B cells in circulating B cells was measured for each co-medication group at day-7, 24 hours post first injection, and 24 hours post fifth injection.
Monocyte activation is reflected in FIG. 88. The percentage of activated monocytes/macrophages in circulating PBMCs was measured for each co-medication group at day-7, 24 hours post first injection, and 24 hours post fifth injection. […] An increase in the percentage of activated monocytes/macrophages post injection was only observed in the fingolimod co-medication group.

[1] = co-medication with hEPO mRNA MC3-LNP, 24 hours post first injection

Row | Frequencies of monocytes in PBMCs (co-medication) | Percentage of activated monocytes/macrophages post injection (co-medication) | B cell frequencies in PBMCs (cynomolgus monkey, in vivo) | Percentage of activated B cells in circulating B cells (cynomolgus monkey, in vivo) | Structure (SMILES) | Percentage of activated B cells in circulating B cells [1]
1 | significant decrease | increase |  |  | CCCCCCCCc1ccc(CCC(N)(CO)CO)cc1 [fingolimod] | normal B cell activation similar to that of the control group
2 |  |  |  |  | COc1cc(Nc2ncc(F)c(Nc3ccc4c(n3)N(COP(=O)(O)O)C(=O)C(C)(C)O4)n2)cc(OC)c1OC [fostamatinib] | normal B cell activation similar to that of the control group
3 |  |  | slightly reduced | B cell activation was not observed | CC[C@H](Nc1ncnc2[nH]cnc12)c1nc2cccc(F)c2c(=O)n1-c1ccccc1 [idelalisib] | 
